# Measured values published in patent US7169783B2, “(+)-Trans-4-(1-aminoethyl)-1-(4-pyridycarbamoyl)-cyclohexane and method for promoting neural growth in the central nervous system and in a patient at a site of neuronal lesion” (Universite de Montreal, priority 1998, dated 2007).
# Experiments:
# [1] = system: hindlimb motor function; test: Behavioral recovery after SCI, modified BBB locomotor rating scale; assay type: in vivo, mice
# Protocol: Since a toe clearance phase cannot be evaluated in recuperating mice, we modified the rating to a 17 point scale. Behavioral recovery was assessed for one month after SCI in an open field environment by the BBB method (Basso et al., 1995). […] Thus, scale points 16, 17 and 18 were removed from the scale. Mice raise their tail early in their recovery, and score 19 for tail up position was removed, leaving a 17 point total score. The mouse modified BBB score was as follows: [0] no observable hindlimb (HL) movement; […] […] In the late phase of recovery, the BBB score was determined from sequences of 4 steps or more from digitized videos projected on a computer screen at ¼ speed.
# [2] = system: primary retinal neurons; test: Neurite growth of primary retinal neurons on complex inhibitory substrates (CSPG, myelin); assay type: cell-based, rats; conditions: plated on myelin or CSPG; 48 hours; FIG. 8
# [3] = system: corticospinal tract (CST) fibers; design: species or system Balb-c female mice; conditions: mouse, in vivo
structure (smiles),measurement,setting,value
"C[C@@H](N)[C@H]1CC[C@H](C(=O)Nc2ccncc2)CC1 [Y27632, (+)-Trans-4-(1-aminoethyl)-1-(4-pyridycarbamoyl)-cyclohexane]",locomotor recovery over 1 month,[1]; 1 month period of observation,exhibited hindlimb-forelimb coordination
same,locomotor recovery at 24 hours after surgery,"[1]; 24 hours, control mice paraplegic, FIG. 10",already walking with weight support
same,length of neurites compared to untreated cells,[2],significantly increased the length of neurites
same,distance of the longest axon from the lesion site,[3],up to 3 mm
same,sprouting of transected CST axons,[3],regenerative sprouting into the dorsal white matter and toward the lesion site
